{
  "source": "patent US20240108685A1",
  "about": "“ORAL LIPOSOMAL COMPOSITIONS” (priority 2021, published 2024)",
  "tested_on": "4T-1 cells of mammary cancer",
  "assay": "Orthotopic 4T1 breast cancer model, lung metastases",
  "format": "in vivo, BALB/c mice",
  "details": "after 3 weeks",
  "from_the_text": "The objective of this study was to evaluate the capacity of a suspension of liposomal MTP-PE, prepared according to the invention and administered orally, to inhibit the development of pulmonary metastases from cancer of the mammary gland.\nThe experimental model consisted of using immunocompetent mice of the BALB/c strain and performing an orthotopic transplant of 4T-1 cells of mammary cancer of murine origin.\nThis orthotopic graft forms a tumor reproducing human breast cancer which disseminates and forms metastases in the lungs after 3 weeks.\nSuspensions of liposomes were prepared according to the method indicated in example 1.\n4T1 tumors were induced on day zero (DO) orthotopically in 60 BALB/c female mice under anesthesia.\nA total of 300,000 4T1 tumor cells were slowly injected into the right thoracic breast tissue.\nAnimals were randomized by tumor size on Day 9 into six groups of ten animals each […]. Homogeneity of tumor sizes between groups was tested by analysis of variance (ANOVA).\nThe animals of Groups 1, 2 and 3 were treated respectively with Batch H3 (control), Batch G3 and Batch G3 twice a week orally.\nAdditionally, animals in Groups 2 and 4 were treated with intravenous injections of doxorubicin at 8 mg/kg once weekly for 3 weeks. […] The number of lung metastases was counted using a binocular loupe.",
  "data": [
    {"smiles": "COc1cccc2c1C(=O)c1c(O)c3c(c(O)c1C2=O)C[C@@](O)(C(=O)CO)C[C@@H]3O[C@H]1C[C@H](N)[C@H](O)[C@H](C)O1", "note": "[doxorubicin]", "values": [
      {"measurement": "Effect on lung metastases (in words)", "result": "did not show significant efficacy"}
    ]}
  ]
}
